Laboratory results as given in PubChem BioAssay (NCI).
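Protocol summary: plate cells (96-well), add compound at 5 concentrations, incubate 48 h, interpolate endpoints linearly. At the TGI there is no net growth.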

Experiments:
Assay in all cases: NCI anticancer screen, dose series, 48 h
[1] = system: CCRF-CEM leukemia
[2] = system: HCT-116 colon
[3] = system: SW-620 colon
[4] = system: SNB-75 CNS
[5] = system: SNB-19 CNS
[6] = system: PC-3 prostate
[7] = system: MOLT-4 leukemia
[8] = system: RXF 393 renal
[9] = system: UACC-257 melanoma
[10] = system: SR leukemia
[11] = system: MCF7 breast
[12] = system: ACHN renal
[13] = system: COLO 205 colon
[14] = system: KM12 colon
[15] = system: NCI/ADR-RES ovarian
[16] = system: NCI-H460 lung
[17] = system: MDA-N
[18] = system: NCI-H226 lung
[19] = system: 786-0 renal
[20] = system: MDA-MB-231 breast
[21] = system: OVCAR-4 ovarian
[22] = system: HCC-2998 colon
[23] = system: EKVX NSCLC
[24] = system: A549 NSCLC
[25] = system: UACC-62 melanoma
[26] = system: SF-295 CNS
[27] = system: A498 renal
[28] = system: IGROV1 ovarian
[29] = system: M14 melanoma
[30] = system: HOP-62 NSCLC
[31] = system: SK-MEL-2 melanoma
[32] = system: NCI-H23 lung
[33] = system: UO-31 renal
[34] = system: SK-MEL-5 melanoma
[35] = system: DU-145 prostate
[36] = system: MALME-3M melanoma
[37] = system: MDA-MB-435
[38] = system: HCT-15 colon
[39] = system: OVCAR-3 ovarian
[40] = system: SK-OV-3 ovarian
[41] = system: T-47D breast
[42] = system: OVCAR-8 ovarian
[43] = system: U251 CNS
[44] = system: SF-268 CNS
[45] = system: BT-549 breast
[46] = system: SN12C renal
[47] = system: CAKI-1 renal
[48] = system: OVCAR-5 ovarian
[49] = system: HS 578T breast
[50] = system: RPMI-8226 leukemia
[51] = system: TK-10 renal
[52] = system: SF-539 CNS
[53] = system: HOP-92 NSCLC
[54] = system: K-562 leukemia
[55] = system: SK-MEL-28 melanoma
[56] = system: LOX IMVI melanoma
[57] = system: HL-60(TB) leukemia
[58] = system: HT29 colon
[59] = system: NCI-H522 lung

Measured: TGI

O=C1C2=C(SCCS2)C(=O)c2c(Sc3ccc(Cl)cc3)c(Sc3ccc(Cl)cc3)c(Sc3ccc(Cl)cc3)c(Sc3ccc(Cl)cc3)c21
52.8 µM: [25]
30.9 µM: [7]
85.3 µM: [20]
99.4 µM: [8]
88.6 µM: [5]
73.7 µM: [27]
23.8 µM: [1]
69.8 µM: [36]
36.2 µM: [10]
not listed: [51] | [52] | [53] | [54] | [55] | [56] | [57] | [58] | [59]
> 100 µM: all other assays above

CCOC(=O)C(=O)CC(=O)C1=C(c2ccccc2OC)CC(c2cccs2)=CC1=O
49.8 µM: [4]
not listed: [10] | [11] | [21] | [22]
> 100 µM: all other assays above

COc1ccc(CNc2nc3cc(C(F)(F)F)ccc3nc2-c2ccccc2)cc1OC
46.5 µM: [16]
45.9 µM: [22]
61.1 µM: [58]
42.4 µM: [34]
75.4 µM: [47]
42.5 µM: [11]
76.8 µM: [56]
not listed: [18] | [27] | [43] | [46] | [50] | [53] | [55]
> 100 µM: all other assays above

COc1ccccc1C1(C)SCc2nc3ccccc3n21 (stereo not drawn)
not listed: [2] | [4] | [8] | [9] | [12] | [13] | [16] | [19] | [20] | [22] | [23] | [24] | [25] | [26] | [27] | [28] | [30] | [34] | [40] | [41] | [42] | [44] | [47] | [49] | [50] | [52] | [55] | [58]
> 10 µM: all other assays above
